The values below are quoted from earlier work in patent US20040242698A1, “Analeptic and antidepressant combinations” (Cephalon Inc., priority 2003, published 2004).

Series [1] deals with major depressive disorder. The note with it: at 6 weeks.
Another series relates to cats. The following applies: Lin et al., 1992.
A further series deals with canines. The note with it: Shelton et al., 1995.
The test system of another series is narcoleptic canine. The note with it: narcolepsy model; Shelton et al, 1995.
Series [2] relates to English bulldog sleep disordered breathing model. The note with it: sleep apnea model; Panckeri et al, 1996.
The next series concerns non-human primates. The note with it: Hernant et al, 1991.
The test system of another series is rats. The following applies: Touret et al., 1995, Edgar and Seidel, 1997.

Take `CNCCC(Oc1ccc(C(F)(F)F)cc1)c1ccccc1` (stereo not shown) [fluoxetine]: in series [1], the response entry is recorded as “about 50%”.

Regarding `NC(=O)C[S+]([O-])C(c1ccccc1)c1ccccc1` (stereo not shown) [Modafinil, 2-(benzhydrylsulfinyl) acetamide], the wakefulness entry (in the series with cats; in the series on canines; with narcoleptic canine; in series [2]; in the series with non-human primates; in the series with rats) was “promotes wakefulness” each time.
